# Test results: patent US9683014B2, “Dipeptide mimetics of NGF and BDNF neurotrophins” (UCHREZHDENIE ROSSIISKOI AKADEMII MEDITSYNSKIKH NAUK …, priority 2009, dated 2017)
# Values joined by “and” are separate entries in the source; they are usually repeats but may differ in a detail not shown here. Equal values may be shown once. Read-outs that look alike come from different tables or passages of the source. Marks after values point to notes of the source that are not given here.
# Assays:
# [1] = system: rats with photothrombosis of the prefrontal cortex; conditions: 1 mg/kg i.p.
# Procedure: The test substance was administered intraperitoneally at a dose of 1 mg/kg using the following regimen: at 1 h after surgery, at 24 h after the first administration, at 4 days and 6 days after the first administration.
# A bilateral focal ischemic infarction of the prefrontal cortex of the rat brain (the Fr1 and Fr2 fields according to the atlas of Paxinos and Watson, 1986) was produced by the photoinduced thrombosis method (Watson et al., 1985). Animals were anesthetized with chloral hydrate (300 mg/kg i.p.). The photosensitive dye Bengal red (Sigma Chemical Co.) was injected into the jugular vein (3% solution, 40 mg/kg). The animal's head was clamped in the stereotaxis device, and the periosteum was removed after a longitudinal incision of the skin.
# A light guide (the output light beam diameter 3 mm) was placed at a distance of 1 mm from the skull surface using the following coordinates: 2.00 mm rostral of the bregma and 2.00 mm lateral of the sagittal suture. Cold light illumination (a xenon lamp source, 25 V, 250 W) was carried out for 15 min at either side. […] To assess their functional status, the animals were evaluated for their motor activity (MA) in a RODEO-1 automatic unit with an observation time of 5 min. The MA was analyzed before and at 9 days after the photothrombosis of the prefrontal cortex.
# [2] = biological target: T1, tyrosine kinase A (TrkA) (Mus musculus, UniProt Q3UFB7); test: Tyrosine kinase A phosphorylation in HT-22 cells (Western blot); format: cell-based; conditions: first minute of exposure
# T1 construct: phosphorylation of tyrosine kinase A in cultured hippocampal neuronal cell line HT22; endogenous in cells; host or cells: HT-22 hippocampal neuronal cell line
# Procedure: The amount of Hsp70, Hsp32 and pTrkA was determined in the cytoplasmic fraction of HT-22 neuronal cells. For heat shock proteins, a test compound was added to the culture 24 hours prior to testing, before the cells were washed off the culture liquid with PBS. For pTrkA, a test compound was added to the culture immediately prior to the cell lysis just for 1 or 2 min, before the cells were washed off the culture liquid with PBS. Then the cells were mixed with the lysis buffer (50 mM Tris-HCl, 5 mM EDTA, 1 mM DTT, 1% Triton X-100, pH 7.5) at 4° C. and lysed for 5 min, then scraped off, transferred into a 1.5 ml centrifuge tube and centrifuged at 13000 rpm and 4° C. for 10 min. The supernatant containing cytosolic proteins was assayed by electrophoresis and immunoblotting. Proteins were separated on a 10% polyacrylamide gel (PAAG) and transferred from PAAG onto a PVDF membrane by electroelution for 45 min. Western blots were pre-incubated for 1 h in a TBST solution containing 1% Tween-20 and supplemented with 5% (w/v) skim milk. Western blots were then incubated with the primary polyclonal anti-Hsp32 antibody diluted 1:1000 or primary monoclonal anti-Hsp70 antibody diluted 1:1000 or primary monoclonal anti-phosphorylated tyrosine kinase A antibody diluted 1:1000 for 1 hour. Then the blots were washed and incubated with a secondary antibody conjugated to horseradish peroxidase (diluted 1:2000) for 1 hour. The detection of Hsp70, Hsp32 and pTrkA was carried out by the ECL reaction on a Kodak film.
# [3] = system: HT-22 cells; test: Oxidative stress (H2O2) model in cultured HT-22 cells (MTT test); format: cell-based, mouse
# Procedure: To induce an oxidative stress, the cells were placed in a growth medium containing 5% FBS, then a freshly prepared H2O2 solution was added to a final concentration of 1.5 mM and incubated for 30 min at 37° C. and 5% CO2. Thereafter, the medium was replaced with a new one and the cells were cultured for 4 h under the same conditions.
# The determination of cell viability was carried out by MTT test. […] At the end of an experiment the growth medium was replaced with an MTT solution (0.5 mg/ml) and incubated for 30 min at 37° C. and 5% CO2. The MTT solution was then removed from the wells and DMSO was added to dissolve the formazan precipitate. Then the optical density was measured using a Multiscan (Thermo) spectrophotometer at a wavelength of 600 nm.
# [4] = system: rats with hemorrhagic stroke; conditions: 1 mg/kg
# Procedure: The experiments were carried out on male white outbred rats weighing 220-250 g. […] The local cerebral hemorrhage (post-traumatic intracerebral hemorrhage) as a hemorrhagic stroke (HS) model was produced by the method of Makarenko (Makarenko A. N. et al., Zh. V. N. D. 2002, 52(6), 765-768).
# To produce the stroke, rats were anesthetized with chloral hydrate (400 mg/kg i.m.) followed by craniotomy. The cerebral tissue in the region of internal capsule was destroyed followed (in 2-3 min) by the injection of blood (0.02-0.03 ml) taken from under the animal's tongue.
# The rats were monitored for 14 days after surgery. Animal's physical condition and behavioral features were recorded at 1, 3, 7 and 14 days.
# The animals were distributed into 3 groups. Group 1 comprised sham-operated (SO) rats with craniotomy alone, group 2 comprised animals with HS, and group 3 comprised rats with HS treated with GK-2 (1 mg/kg at 3 h after surgery and every 48 hours thereafter for a total of 6 administrations). Group 1 and group 2 animals were treated with physiological saline in an equivalent volume.
# Changes in animals' physical condition and behavior were evaluated by conventional methods. The neurological status was assessed by scoring neurological deficits according to MacGrow's stroke scoring system as modified by I. V. Gannushkina; by the muscle tone and coordination of movements monitoring methods; cognitive function was assessed by the passive avoidance conditioned reflex (PAR); and orientation and exploratory behavior by using the open field test. Also the drug's effect on the survival of rats was monitored.
# T1 sequence (Q3UFB7 34-799): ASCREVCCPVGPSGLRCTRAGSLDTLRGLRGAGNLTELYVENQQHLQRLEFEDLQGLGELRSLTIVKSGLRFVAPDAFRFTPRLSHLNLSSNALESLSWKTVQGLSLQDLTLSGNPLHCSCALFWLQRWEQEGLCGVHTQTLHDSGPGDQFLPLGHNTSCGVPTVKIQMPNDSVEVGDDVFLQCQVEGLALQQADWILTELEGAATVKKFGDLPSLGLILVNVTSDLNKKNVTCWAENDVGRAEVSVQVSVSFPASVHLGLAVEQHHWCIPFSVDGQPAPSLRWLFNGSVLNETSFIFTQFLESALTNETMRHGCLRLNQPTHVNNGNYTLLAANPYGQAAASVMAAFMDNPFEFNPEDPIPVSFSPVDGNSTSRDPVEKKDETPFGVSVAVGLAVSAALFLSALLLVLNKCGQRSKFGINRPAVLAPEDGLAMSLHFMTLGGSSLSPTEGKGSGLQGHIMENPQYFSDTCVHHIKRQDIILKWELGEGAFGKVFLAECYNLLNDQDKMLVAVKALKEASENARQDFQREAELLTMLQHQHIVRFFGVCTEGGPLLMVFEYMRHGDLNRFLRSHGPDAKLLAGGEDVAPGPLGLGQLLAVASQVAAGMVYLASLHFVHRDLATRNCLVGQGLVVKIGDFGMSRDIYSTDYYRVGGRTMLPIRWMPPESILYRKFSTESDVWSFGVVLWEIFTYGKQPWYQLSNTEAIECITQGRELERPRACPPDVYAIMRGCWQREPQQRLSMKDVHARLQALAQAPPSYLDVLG
compound,measurement,setting,value
"NCCCC[C@H](NC(=O)[C@H](CCC(=O)O)NC(=O)CCC(=O)O)C(=O)NCCCCCCNC(=O)[C@H](CCCCN)NC(=O)[C@H](CCC(=O)O)NC(=O)CCC(=O)O [GK-2, bis-(N-monosuccinyl-glutamyl-lysine) hexamethylenediamide]","lesion volume (left and right hemispheres, per rat, mean)",[1]; FIG. 2.4,reduced
same,protection effectiveness rate (PER),[1]; PER=(V0−Vs)/V0×100%,61%
same,level of phosphorylated tyrosine kinase A,[2],increased
same,Optical density (MTT),[3],0.324 ± 0.070^ and 0.345 ± 0.065^
same,effect when added immediately after the oxidative stress exposure,[3]; 10^−8 M to 10^−5 M,therapeutic effect
same,Optical density (MTT),"[3]; Table 1.4, 10^−5M, 24 h before H2O2, control 0.427 ± 0.071, H2O2 0.350 ± 0.052",0.422 ± 0.063^
same,Optical density (MTT),"[3]; Table 1.4, 10^−8M, 24 h before H2O2, control 0.427 ± 0.071, H2O2 0.350 ± 0.052",0.501 ± 0.109^
same,Optical density (MTT),"[3]; Table 1.4, 10^−9M, 24 h before H2O2, control 0.427 ± 0.071, H2O2 0.350 ± 0.052",0.516 ± 0.068^
same,neuronal survival under oxidative stress,"[3]; added 24 hours prior to the stress exposure, 10^−8 M to 10^−5 M",improved the neuronal survival
same,"Number of rats lost within 14 days after HS, total loss, %","[4]; sham 0, stroke 40",0%
same,"Number of rats lost within 14 days after HS, total loss, abs.","[4]; sham 0/10, stroke 4/10",0/10^#
same,Latency to entering the dark compartment (burrowing reflex),"[4]; sham 13.3 ± 2.10, stroke 40.2 ± 13.2",27.9 ± 10.4 s
same,"Number of rats lost, %","[4]; Day 1, sham 0, stroke 20",0%
same,"Number of rats lost, abs.","[4]; Day 1, sham 0/10, stroke 2/10",0/10
same,Number of crossings into open arms,"[4]; Day 1, sham 0.9, stroke 0",1.6 ± 0.4
same,Number of crossings into the middle,"[4]; Day 1, sham 1.9, stroke 0.25",1.5 ± 0.4
same,Number of crossings into closed arms,"[4]; Day 1, sham 2.4, stroke 1.1",1.9 ± 0.4
same,Latency to entering an arm,"[4]; Day 1, sham 6.1, stroke 62.8",4.9 ± 1.05 s
same,Length of time spent in open arms,"[4]; Day 1, sham 11.6, stroke 0",51.3 ± 27.9 s
same,Length of time spent in the middle,"[4]; Day 1, sham 46.8, stroke 95.3",27.5 ± 7.4 s
same,PAR retention: Number of rats entering the dark compartment,"[4]; Day 1, sham 60, stroke 100",60%
same,PAR retention: Latency to entering the dark compartment,"[4]; Day 1, sham 95.0, stroke 24.5",85.5 ± 25.9 s
same,Length of time spent in closed arms,"[4]; Day 1, sham 241.6, stroke 204.8",221.2 ± 28.5 s
same,"Number of rats lost, %","[4]; Day 3, sham 0, stroke 0",0%
same,"Number of rats lost, abs.","[4]; Day 3, sham 0/10, stroke 0/8",0/10
same,Number of crossings into open arms,"[4]; Day 3, sham 0.6, stroke 0.12",0.8 ± 0.2
same,Number of crossings into the middle,"[4]; Day 3, sham 0.6, stroke 0.12",0.5 ± 0.2
same,Number of crossings into closed arms,"[4]; Day 3, sham 1.4, stroke 0.5",1.2 ± 0.1
same,Latency to entering an arm,"[4]; Day 3, sham 5.1, stroke 164.4",7.1 ± 1.9 s
same,Length of time spent in open arms,"[4]; Day 3, sham 6.2, stroke 1.3",10.3 ± 4.4 s
same,Length of time spent in the middle,"[4]; Day 3, sham 18.6, stroke 165.0",15.1 ± 4.9 s
same,PAR retention: Number of rats entering the dark compartment,"[4]; Day 3, sham 70, stroke 100",60%
same,PAR retention: Latency to entering the dark compartment,"[4]; Day 3, sham 74.0, stroke 18.3",88.0 ± 25.8 s
same,Length of time spent in closed arms,"[4]; Day 3, sham 275.2, stroke 133.7",274.6 ± 5.7 s
same,"Number of rats lost, %","[4]; Day 7, sham 0, stroke 12.5",0%
same,"Number of rats lost, abs.","[4]; Day 7, sham 0/10, stroke 1/8",0/10
same,Number of crossings into the middle,"[4]; Day 7, sham 0.7, stroke 0",0.8 ± 0.4
same,Number of crossings into open arms,"[4]; Day 7, sham 1.4, stroke 0.4",1.1 ± 0.2
same,Number of crossings into closed arms,"[4]; Day 7, sham 1.4, stroke 1.0",1.5 ± 0.2
same,Latency to entering an arm,"[4]; Day 7, sham 3.0, stroke 67.4",2.5 ± 0.3 s
same,Length of time spent in the middle,"[4]; Day 7, sham 8.3, stroke 67.4",8.0 ± 2.2 s
same,Length of time spent in open arms,"[4]; Day 7, sham 13.3, stroke 8.6",9.2 ± 1.9 s
same,PAR retention: Number of rats entering the dark compartment,"[4]; Day 7, sham 50, stroke 100",80%
same,PAR retention: Latency to entering the dark compartment,"[4]; Day 7, sham 97.2, stroke 17.6",45.5 ± 22.5 s
same,Length of time spent in closed arms,"[4]; Day 7, sham 278.4, stroke 238.3",283.0 ± 2.9 s
same,"Number of rats lost, %","[4]; Day 14, sham 0, stroke 14.3",0%
same,"Number of rats lost, abs.","[4]; Day 14, sham 0/10, stroke 1/7",0/10
same,Number of crossings into the middle,"[4]; Day 14, sham 0.7, stroke 0.2",1.4 ± 0.3
same,Number of crossings into open arms,"[4]; Day 14, sham 1.1, stroke 0.2",1.1 ± 0.3
same,Number of crossings into closed arms,"[4]; Day 14, sham 1.3, stroke 0.8",1.6 ± 0.4
same,Latency to entering an arm,"[4]; Day 14, sham 3.1, stroke 54.3",2.6 ± 0.4 s
same,Length of time spent in the middle,"[4]; Day 14, sham 18.1, stroke 57.7",16.4 ± 8.5 s
same,Length of time spent in open arms,"[4]; Day 14, sham 29.7, stroke 0.8",8.8 ± 2.3 s
same,PAR retention: Number of rats entering the dark compartment,"[4]; Day 14, sham 60, stroke 100",90%
same,PAR retention: Latency to entering the dark compartment,"[4]; Day 14, sham 93.5, stroke 8.0",45.0 ± 16.4 s
same,Length of time spent in closed arms,"[4]; Day 14, sham 252.2, stroke 241.5",274.8 ± 9.9 s
